Experimental data published in US10047084B2, “Imidazolone derivatives, pharmaceutical compositions and uses thereof” (BEIJING FORELANDPHARMA CO. LTD., priority 2013, dated 2018).

Columns and labels:
PC-3 = assay: CTG cell survival assay, PC-3; format: cell-based; conditions: Homo sapiens, PC-3 cells
Summary of the method: (§1)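 Cells were exposed to compounds in a 3-fold dilution series, with a top final concentration of 10 uM in 0.1% DMSO. Viable cells were quantified by CellTiter-Glo ATP luminescence.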

MV-4-11 = assay: CTG cell survival assay, MV-4-11; format: cell-based; conditions: Homo sapiens, MV4-11, MV-4-11 cells
Summary of the method: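 Cells grown in RPMI 1640 with 10% FBS were plated and cultured 24 h at 37 °C, 5% CO2, then treated with compound diluted from 10 mM DMSO stocks. Viable cells were quantified as ATP by CellTiter-Glo luminescence.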

mTOR kinase = mTOR kinase (Homo sapiens (Human), UniProt P42345); assay: mTOR kinase activity assay (TR-FRET, GFP-4EBP1 substrate); format: biochemical; conditions: read-out: Enzyme (mTOR) IC50
Description: 1. mTOR Kinase Activity Assay: The inhibition of the mTOR protein kinase activity by the compounds was determined by the enzymatic activity assay in vitro. The detection kit supplied by Invitrogen was used to detect the inhibition of the activity of the mTOR […]. The principle of the assay was as follows: mTOR kinase, fluorescein-labeled substrate and ATP were mixed, and after the reaction, EDTA and terbium-labeled first antibody were added. During the chemical reaction process of the mTOR kinase, the antibody recognized the phosphorylated and fluorescein-labeled substrate, and then the “time-resolved fluorescence resonance energy transfer” (TR-FRET) effect was enhanced. TR-FRET effect was calculated as the ratio of signals from the acceptor fluorescein to signals from the donor terbium. The amount of the antibody bound to the tracer was directly proportional to the amount of the phosphorylated substrate after the reaction. In this way, the kinase activity can be detected. In this assay, the substrate of the mTOR kinase was green fluorescent protein-coupled 4E binding protein 1 (GFP-4EBP1).
1.1 Materials and Instruments:
4-Hydroxyethylpiperazine ethanesulfonic acid (HEPES, Sigma, Cat# SH3375), ethylene glycol-bis-(2-aminoethylether)-tetraacetic acid (EGTA, Sigma, Cat# E3889), manganese chloride (MnCl2, Sigma, Cat# M1787), Tween-20 (Tween-20, Amresco), 1,4-dithiothreitol (DTT, Merck, CB233155),

[1] = Solubility test in common aqueous vehicles; format: physicochemical; conditions: 25° C., pH = 3
SK-BR3/BT474 = assay: CTG cell survival assay, SK-BR3/BT474; format: cell-based; conditions: SK-BR3/BT474 cells
Summary of the method: as §1

[2] = molecular target: PI3K-alpha (PIK3CA/PIK3R1) (Homo sapiens (Human), UniProt P42336); assay: PI3K-alpha enzyme activity assay (ADP Glo); format: biochemical; conditions: read-out: Activity of inhibiting PI3K enzyme IC50
From the text: 3. PI3K-alpha Enzyme Activity Assay: PI3K alpha-ADP Glo Assay was employed. In the determination of PI3K enzyme activity, the detection kit supplied by Promega (Promega, Cat #: V9101) was used to detect the inhibition effect of the compounds on the activity of PI3K enzyme. The adenosine diphosphate produced during the whole enzymic reactions was quantified. The resulting values were used to calculate the activity of PI3K (Table 1).
3.1 Detection reagents: PIK3CA/PIK3R1 purchased from Invitrogen (Cat #: PV4788): The active kinase was diluted with kinase diluent III; and mixed with bovine serum albumin (BSA) in a ratio of 1:4 (5×dilution). The final BSA concentration was 50 ng/ml; and the compositions of Kinase Detection Solution I were: 25 mM MOPS, pH7.2, 12.5 mM β-glycerophosphate, 25 mM magnesium chloride, 5 mM EGTA, and 2 mM EDTA. Before use, 0.25 mM DTT was added to Kinase Detection Solution I; 250 μM adenosine triphosphate (ATP) Detection solution: 0.55 mg of ATP was dissolved in 4 ml of Kinase Detection Solution I, subdivided in 200 μl/vial and stored at −20° C. Substrate: Phosphatidylinositol (4,5) bis-phosphate; this substrate was diluted with Kinase Detection Solution I to a concentration of 125 μM. Final concentrations were: 10 μM PIP2, 10 μM ATP, 1% DMSO, and 0.0005-10 μM compounds.
a) Experimental Procedure: • 3.2.1 50 μL of the compounds diluted with dimethyl sulfoxide (DMSO) at a concentration of 100 μM were added to the 384-well dilution plate. The compounds were diluted with dimethyl sulfo de (DMSO) in a ratio of 1:3 (10 dilution concentrations plus 1 zero concentration). • 3.2.2 5 μL of the diluted compounds were transferred to the corresponding 384-well black Proxi plate (containing 47.5 μL of detection solution/well), and shaked for several seconds. • 3.2.3 2 μL of 2.5×PI3K working solution was added to 384-well black Proxi plate. • 3.2.4 2 μL of the diluted compounds were added to the detection plate (3 wells for each concentration). • 3.2.5 The plate was incubated at room temperature for 2 h. • 3.2.6 5 μL of ADP Glo Reagent was added. • 3.2.7 The plate was incubated at room temperature for 40 minutes. • 3.2.8 10 μL of the kinase detection reagent was added. • 3.2.9 The plate was incubated at room temperature for 40 minutes. • 3.2.10 The activity was detected by using Envision Reader.
The inhibition of the mTOR […] activity by the compounds ranges in 0.5 to several hundreds nanomoles, see Table 1.

Chain of mTOR kinase (P42345 1360-2549): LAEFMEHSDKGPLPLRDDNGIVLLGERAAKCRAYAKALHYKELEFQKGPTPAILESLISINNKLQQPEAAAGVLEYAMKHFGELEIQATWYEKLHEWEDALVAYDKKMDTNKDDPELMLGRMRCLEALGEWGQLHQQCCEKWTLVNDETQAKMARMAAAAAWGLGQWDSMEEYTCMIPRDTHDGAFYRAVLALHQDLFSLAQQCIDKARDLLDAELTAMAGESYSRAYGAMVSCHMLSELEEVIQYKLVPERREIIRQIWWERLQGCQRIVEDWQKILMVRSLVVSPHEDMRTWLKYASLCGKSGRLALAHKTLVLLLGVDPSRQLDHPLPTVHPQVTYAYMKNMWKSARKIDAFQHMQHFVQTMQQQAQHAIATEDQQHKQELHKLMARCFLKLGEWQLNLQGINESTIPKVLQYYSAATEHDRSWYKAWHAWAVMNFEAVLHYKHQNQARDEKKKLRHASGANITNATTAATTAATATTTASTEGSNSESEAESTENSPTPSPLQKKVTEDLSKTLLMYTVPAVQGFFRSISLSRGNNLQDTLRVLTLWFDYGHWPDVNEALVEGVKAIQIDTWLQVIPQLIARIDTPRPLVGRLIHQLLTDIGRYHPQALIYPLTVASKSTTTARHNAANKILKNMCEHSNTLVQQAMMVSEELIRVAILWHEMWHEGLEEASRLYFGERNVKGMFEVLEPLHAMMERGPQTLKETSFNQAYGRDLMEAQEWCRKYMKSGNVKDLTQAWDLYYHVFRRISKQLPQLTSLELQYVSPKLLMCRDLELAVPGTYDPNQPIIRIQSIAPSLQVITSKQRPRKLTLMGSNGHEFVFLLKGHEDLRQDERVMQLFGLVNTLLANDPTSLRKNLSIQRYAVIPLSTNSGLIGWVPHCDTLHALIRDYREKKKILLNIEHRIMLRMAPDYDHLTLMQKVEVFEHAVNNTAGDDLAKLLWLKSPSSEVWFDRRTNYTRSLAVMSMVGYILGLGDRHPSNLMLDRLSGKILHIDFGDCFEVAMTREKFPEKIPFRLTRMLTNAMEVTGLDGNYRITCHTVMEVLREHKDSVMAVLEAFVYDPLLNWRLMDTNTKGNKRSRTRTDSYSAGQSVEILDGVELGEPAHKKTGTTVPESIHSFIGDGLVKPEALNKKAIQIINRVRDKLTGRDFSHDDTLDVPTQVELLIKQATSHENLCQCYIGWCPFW
Chain of PI3K-alpha (PIK3CA/PIK3R1) (P42336 whole entry, looked up): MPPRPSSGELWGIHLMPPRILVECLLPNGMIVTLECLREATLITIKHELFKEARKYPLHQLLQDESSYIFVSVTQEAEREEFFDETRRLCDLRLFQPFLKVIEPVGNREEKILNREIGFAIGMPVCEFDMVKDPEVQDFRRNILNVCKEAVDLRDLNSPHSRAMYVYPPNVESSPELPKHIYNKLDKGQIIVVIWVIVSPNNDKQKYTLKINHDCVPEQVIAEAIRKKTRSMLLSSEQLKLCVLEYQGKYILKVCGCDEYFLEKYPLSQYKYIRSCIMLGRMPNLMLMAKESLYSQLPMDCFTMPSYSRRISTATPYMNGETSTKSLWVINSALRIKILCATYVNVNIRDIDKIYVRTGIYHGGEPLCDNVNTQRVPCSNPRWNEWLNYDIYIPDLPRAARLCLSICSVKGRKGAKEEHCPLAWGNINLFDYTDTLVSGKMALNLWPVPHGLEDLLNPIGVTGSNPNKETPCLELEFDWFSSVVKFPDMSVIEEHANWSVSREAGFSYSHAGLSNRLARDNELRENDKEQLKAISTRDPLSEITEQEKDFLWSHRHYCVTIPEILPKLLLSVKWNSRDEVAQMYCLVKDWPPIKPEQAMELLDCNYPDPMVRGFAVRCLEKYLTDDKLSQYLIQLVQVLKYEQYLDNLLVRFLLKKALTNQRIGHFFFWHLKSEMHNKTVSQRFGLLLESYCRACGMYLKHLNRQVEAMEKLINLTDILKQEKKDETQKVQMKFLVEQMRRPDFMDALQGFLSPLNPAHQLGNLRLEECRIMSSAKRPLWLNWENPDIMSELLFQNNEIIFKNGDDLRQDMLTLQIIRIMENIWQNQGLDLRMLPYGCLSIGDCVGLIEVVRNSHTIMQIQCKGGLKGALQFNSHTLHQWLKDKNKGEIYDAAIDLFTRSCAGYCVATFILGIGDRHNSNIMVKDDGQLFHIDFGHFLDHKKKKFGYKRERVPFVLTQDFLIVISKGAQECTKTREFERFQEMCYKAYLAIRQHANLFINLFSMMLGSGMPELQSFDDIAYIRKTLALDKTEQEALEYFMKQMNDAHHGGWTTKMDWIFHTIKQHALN
Chain of PI3K-alpha (PIK3CA/PIK3R1) (P27986 whole entry partner, looked up): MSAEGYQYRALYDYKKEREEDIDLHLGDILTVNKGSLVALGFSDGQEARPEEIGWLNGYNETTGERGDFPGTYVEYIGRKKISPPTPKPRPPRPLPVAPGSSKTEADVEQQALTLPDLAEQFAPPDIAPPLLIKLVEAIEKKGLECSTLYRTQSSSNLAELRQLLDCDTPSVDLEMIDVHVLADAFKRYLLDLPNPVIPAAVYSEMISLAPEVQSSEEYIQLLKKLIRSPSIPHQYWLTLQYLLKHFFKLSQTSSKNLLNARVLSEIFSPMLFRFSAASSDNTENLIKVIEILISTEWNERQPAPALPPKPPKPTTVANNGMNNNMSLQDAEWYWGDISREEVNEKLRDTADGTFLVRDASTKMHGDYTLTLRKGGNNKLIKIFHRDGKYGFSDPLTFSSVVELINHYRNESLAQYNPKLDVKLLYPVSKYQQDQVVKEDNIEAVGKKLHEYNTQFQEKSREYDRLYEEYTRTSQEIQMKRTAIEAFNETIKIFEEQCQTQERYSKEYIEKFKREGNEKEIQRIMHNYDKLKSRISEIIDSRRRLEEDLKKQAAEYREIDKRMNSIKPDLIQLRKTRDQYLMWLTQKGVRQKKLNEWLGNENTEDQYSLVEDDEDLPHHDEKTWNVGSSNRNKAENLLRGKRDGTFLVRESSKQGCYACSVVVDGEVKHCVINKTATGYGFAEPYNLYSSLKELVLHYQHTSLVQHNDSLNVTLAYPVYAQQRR

Compound	EC50 (PC-3)	EC50 (MV-4-11)	IC50 (mTOR kinase)	solubility ([1]; aqueous buffer, water)	EC50 (SK-BR3/BT474)	solubility ([1]; aqueous with cosolvent or surfactant or cyclodextrin, 30% hydroxypropyl-β-cyclodextrin)	IC50 [2]
Cn1cc(-c2ccc(-c3ccc4ncc5c(c4c3)n(C3CCCN(C(=O)CO)C3)c(=O)n5C)cn2)cn1 (stereo not shown) [Example 1, 1-(1-(2-hydroxyacetyl)piperidin-3-yl)-3-methyl-8-(6-(1-methyl-1H-pyrazol-4-yl)pyridin-3-yl)-1H-imidazo[4,5-c]quinolin-2(3H)-one]	< 200 nM	< 1000 nM	10 to 100 nM	> 1000 µg/mL	< 500 nM		
C[C@H](O)C(=O)N1CCCC(n2c(=O)n(C)c3cnc4ccc(-c5ccc(-c6cnn(C)c6)nc5)cc4c32)C1 (stereo partly drawn) [Example 4, 1-(1-((S)-2-hydroxypropionyl)piperidin-3-yl)-3-methyl-8-(6-(1-methyl-1H-pyrazol-4-yl)pyridin-3-yl)-1H-imidazo[4,5-c]quinolin-2(3H)-one]	< 200 nM	< 500 nM	10 to 100 nM		< 500 nM		
C[C@@H](O)C(=O)N1CCCC(n2c(=O)n(C)c3cnc4ccc(-c5ccc(-c6cnn(C)c6)nc5)cc4c32)C1 (stereo partly drawn) [Example 5, 1-(1-((R)-2-hydroxypropionyl)piperidin-3-yl)-3-methyl-8-(6-(1-methyl-1H-pyrazol-4-yl)pyridin-3-yl)-1H-imidazo[4,5-c]quinolin-2(3H)-one]	< 500 nM	< 500 nM	< 10 nM		< 200 nM		
Cn1cc(-c2ccc(-c3ccc4ncc5c(c4c3)n(C3CCN(S(C)(=O)=O)C3)c(=O)n5C)cn2)cn1 (stereo not shown) [Example 6, 3-methyl-8-(6-(1-methyl-1H-pyrazol-4-yl)pyridin-3-yl)-1-(1-(methanesulfonyl)pyrrolidin-3-yl)-1H-imidazo[4,5-c]quinolin-2 (3H)-one]	< 50 nM	< 200 nM	< 10 nM		< 50 nM		
CCN1CCC(n2c(=O)n(C)c3cnc4ccc(-c5ccc(-c6cnn(C)c6)nc5)cc4c32)C1 (stereo not shown) [Example 10, 1-(1-ethylpyrrolidin-3-yl)-3-methyl-8-(6-(1-methyl-1H-pyrazol-4-yl)pyridin-3-yl)-1H-imidazo[4,5-c]quinolin-2(3H)-one]	< 200 nM	< 1000 nM	100 to 1000 nM		< 1000 nM		
Cn1cc(-c2ccc(-c3ccc4ncc5c(c4c3)n([C@H]3CC[C@H](O)CC3)c(=O)n5C)cn2)cn1 [Example 17, 1-((1r,4r)-4-hydroxycyclohexyl)-3-methyl-8-(6-(1-methyl-1H-pyrazol-4-yl)pyridin-3-yl)-1H-imidazo[4,5-c]quinolin-2(3H)-one]	< 100 nM	< 500 nM	< 10 nM		< 200 nM		
Cn1c(=O)n([C@H]2CC[C@@H](O)CC2)c2c3cc(-c4ccc(-c5ccccc5)nc4)ccc3ncc21 [Example 19, 1-((1s,4s)-4-hydroxycyclohexyl)-3-methyl-8-(6-phenylpyridin-3-yl)-1H-imidazo[4,5-c]quinolin-2(3H)-one]	< 50 nM	< 200 nM	< 10 nM		< 100 nM	> 1000 µg/mL	
COc1ncc(-c2ccc3ncc4c(c3c2)n([C@H]2CC[C@@H](O)CC2)c(=O)n4C)cc1C [Example 20, 1-((1s,4s)-4-hydroxycyclohexyl)-8-(6-methoxyl-5-methylpyridin-3-yl)-3-methyl-1H-imidazo[4,5-c]quinolin-2(3H)-one]	< 200 nM	< 200 nM	10 to 100 nM		< 500 nM		
Cn1c(=O)n([C@H]2CC[C@@H](O)CC2)c2c3cc(-c4cnn(-c5ccccc5)c4)ccc3ncc21 [Example 21, 1-((1s,4s)-4-hydroxycyclohexyl)-3-methyl-8-(1-phenyl-1H-pyrazol-4-yl)-1H-imidazo[4,5-c]quinolin-2(3H)-one]	< 500 nM	< 200 nM	10 to 100 nM		< 500 nM		
Cc1ccc(-c2ccc3ncc4c(c3c2)n([C@H]2CC[C@@H](O)CC2)c(=O)n4C)cn1 [Example 22, 1-((1s,4s)-4-hydroxycyclohexyl)-3-methyl-8-(6-methylpyridin-3-yl)-1H-imidazo[4,5-c]quinolin-2(3H)-one]	< 200 nM	< 200 nM	10 to 100 nM		< 200 nM		
Cn1c(=O)n([C@H]2CC[C@H](O)CC2)c2c3cc(-c4cnn(-c5ccccc5)c4)ccc3ncc21 [Example 23, 1-((1r,4r)-4-hydroxycyclohexyl)-3-methyl-8-(1-phenyl-1H-pyrazol-4-yl)-1H-imidazo[4,5-c]quinolin-2(3H)-one]	< 200 nM	< 500 nM	10 to 100 nM		< 500 nM		
COc1ncc(-c2ccc3ncc4c(c3c2)n([C@H]2CC[C@H](O)CC2)c(=O)n4C)cc1C [Example 24, 1-((1r,4r)-4-hydroxycyclohexyl)-8-(6-methoxyl-5-methylpyridin-3-yl)-3-methyl-1H-imidazo[4,5-c]quinolin-2(3H)-one]	< 200 nM	< 500 nM	10 to 100 nM		< 500 nM		
Cn1cc(-c2ccc(-c3ccc4ncc5c(c4c3)n([C@@H]3CCN(S(C)(=O)=O)C3)c(=O)n5C)cn2)cn1 [Example 27, (R)-3-methyl-8-(6-(1-methyl-1H-pyrazol-4-yl)pyridin-3-yl)-1-(1-(methanesulfonyl)pyrrolidin-3-yl)-1H-imidazo[4,5-c]quinolin-2(3H)-one]			100 to 1000 nM		< 1000 nM		< 10 nM
Cn1cc(-c2ccc(-c3ccc4ncc5c(c4c3)n(C3CCCC(O)C3)c(=O)n5C)cn2)cn1 (stereo not shown) [Example 32, 1-(3-hydroxycyclohexyl)-3-methyl-8-(6-(1-methyl-1H-pyrazol-4-yl)pyridin-3-yl)-1H-imidazo[4,5-c]quinolin-2(3H)-one]	< 50 nM	< 200 nM	< 10 nM		< 100 nM		
CCS(=O)(=O)N1CCC[C@@H](n2c(=O)n(C)c3cnc4ccc(-c5ccc(-c6cnn(C)c6)nc5)cc4c32)C1 [Example 52, (R)-1-(1-(ethylsulfonyl)piperidin-3-yl)-3-methyl-8-(6-(1-methyl-1H-pyrazol-4-yl)pyridin-3-yl)-1H-imidazo[4,5-c]quinolin-2(3H)-one]	< 30 nM	< 30 nM		> 1000 µg/mL	50 nM		
